Source: ChEMBL document CHEMBL3414563, “Rational design of partial agonists for the muscarinic m1 acetylcholine receptor” (J Med Chem, 2015)
The source made the active and inactive calls. No cut-off for these calls is given here.

Key:
[1] = biological target: T1, Muscarinic acetylcholine receptor M1 (Homo sapiens) (UniProt P11229); test: Partial agonist activity at human muscarinic M1 acetylcholine receptor expressed in CHO cells assessed as increase in IP1 accumulation at 10 uM incubated for 30 mins by FRET based HTRF assay relative to 100 uM acetylcholine; type: functional, cell-based
T1 sequence (whole entry): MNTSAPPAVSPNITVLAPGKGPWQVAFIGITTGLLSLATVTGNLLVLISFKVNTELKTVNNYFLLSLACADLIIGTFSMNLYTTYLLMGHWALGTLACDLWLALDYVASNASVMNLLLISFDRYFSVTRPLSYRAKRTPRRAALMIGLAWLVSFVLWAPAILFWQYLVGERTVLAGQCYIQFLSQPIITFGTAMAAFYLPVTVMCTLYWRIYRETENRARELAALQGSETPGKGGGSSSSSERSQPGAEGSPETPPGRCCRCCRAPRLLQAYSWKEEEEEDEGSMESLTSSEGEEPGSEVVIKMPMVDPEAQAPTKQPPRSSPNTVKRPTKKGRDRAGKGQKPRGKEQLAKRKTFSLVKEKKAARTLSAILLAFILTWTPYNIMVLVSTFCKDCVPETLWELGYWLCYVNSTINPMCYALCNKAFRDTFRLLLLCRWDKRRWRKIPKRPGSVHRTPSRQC

[2] = biological target: T1, Muscarinic acetylcholine receptor M1 (Homo sapiens); test: Partial agonist activity at human muscarinic M1 acetylcholine receptor expressed in CHO cells assessed as increase in IP1 accumulation at 10 uM incubated for 30 mins in presence of 100 ng/ml Gi protein inhibitor PTX by FRET based HTRF assay; type: functional, cell-based
[3] = biological target: T2, Muscarinic acetylcholine receptor M1 (Homo sapiens, UniProt P11229)
T2 sequence (P11229 whole entry): T1 sequence (whole entry)
Description: Partial agonist activity at human muscarinic M1 acetylcholine receptor expressed in CHO cells assessed as increase in IP1 accumulation incubated for 30 mins by FRET based HTRF assay

[4] = biological target: T2, Muscarinic acetylcholine receptor M1; test: biochemical
[5] = biological target: T1, Muscarinic acetylcholine receptor M1 (Homo sapiens); test: Allosteric inhibition of [3H]NMS dissociation from human muscarinic M1 acetylcholine receptor expressed in CHO cell membranes by radioligand binding assay
[6] = biological target: T1, Muscarinic acetylcholine receptor M1 (Homo sapiens); test: Allosteric inhibition of [3H]NMS dissociation rate constant k_1 from human muscarinic M1 acetylcholine receptor expressed in CHO cell membranes by radioligand binding assay; details: concentration not given here
[7] = biological target: T1, Muscarinic acetylcholine receptor M1 (Homo sapiens); test: Partial agonist activity at human muscarinic M1 acetylcholine receptor expressed in CHO cells assessed as increase in IP1 accumulation at 10 uM incubated for 30 mins in presence of 1 uM Gq protein inhibitor UBO-QIC by FRET based HTRF assay; type: functional, cell-based
[8] = biological target: T1, Muscarinic acetylcholine receptor M1 (Homo sapiens); test: Modulator activity at human muscarinic M1 acetylcholine receptor expressed in CHO cell membranes assessed as induction of left shift of acetylcholine-induced inhibition of [3H]NMS binding by radioligand binding assay
[9] = biological target: T1, Muscarinic acetylcholine receptor M1 (Homo sapiens); test: Modulator activity at human muscarinic M1 acetylcholine receptor expressed in CHO cell membranes assessed as reduction in pIC50 for acetylcholine-induced inhibition of [3H]NMS binding by radioligand binding assay
[10] = biological target: T1, Muscarinic acetylcholine receptor M1 (Homo sapiens); details: CHO
[11] = biological target: T1, Muscarinic acetylcholine receptor M1 (Homo sapiens); details: CHO; remark: listed apart in the source
[12] = biological target: T1, Muscarinic acetylcholine receptor M1 (Homo sapiens); test: Agonist activity at human muscarinic M1 acetylcholine receptor expressed in CHO cells assessed as increase in IP1 accumulation at 1 uM incubated for 30 mins by FRET based HTRF assay; type: functional, cell-based
[13] = biological target: T1, Muscarinic acetylcholine receptor M1 (Homo sapiens); test: Partial agonist activity at human muscarinic M1 acetylcholine receptor expressed in CHO cells assessed as increase in IP1 accumulation at 10 uM incubated for 30 mins by FRET based HTRF assay; type: functional, cell-based
[14] = biological target: T1, Muscarinic acetylcholine receptor M1 (Homo sapiens); test: Displacement of [3H]NMS from human muscarinic M1 acetylcholine receptor expressed in CHO cell membranes by radioligand binding assay
[15] = biological target: T1, Muscarinic acetylcholine receptor M1 (Homo sapiens); test: Partial agonist activity at human muscarinic M1 acetylcholine receptor expressed in CHO cells assessed as increase in IP1 accumulation at 10 uM incubated for 30 mins by FRET based HTRF assay in presence of 1 uM atropine; type: functional, cell-based
[16] = biological target: T1, Muscarinic acetylcholine receptor M1 (Homo sapiens); test: Partial agonist activity at human muscarinic M1 acetylcholine receptor expressed in CHO cells assessed as increase in IP1 accumulation at 0.3 uM incubated for 30 mins by FRET based HTRF assay relative to 100 uM acetylcholine; type: functional, cell-based
[17] = biological target: T1, Muscarinic acetylcholine receptor M1 (Homo sapiens); test: Allosteric inhibition of [3H]NMS dissociation from human muscarinic M1 acetylcholine receptor expressed in CHO cell membranes assessed as half life of dissociation by radioligand binding assay
[18] = biological target: T1, Muscarinic acetylcholine receptor M1 (Homo sapiens); test: Allosteric inhibition of [3H]NMS dissociation from human muscarinic M1 acetylcholine receptor expressed in CHO cell membranes assessed as […] in half life of dissociation by radioligand binding assay
[19] = biological target: T1, Muscarinic acetylcholine receptor M1 (Homo sapiens); test: Displacement of [3H]NMS from human muscarinic M1 acetylcholine receptor expressed in CHO cell membranes at 1 uM by radioligand binding assay
[20] = biological target: T1, Muscarinic acetylcholine receptor M1 (Homo sapiens); test: Partial agonist activity at human muscarinic M1 acetylcholine receptor expressed in CHO cells assessed as increase in IP1 accumulation at 1 uM incubated for 30 mins by FRET based HTRF assay relative to 100 uM acetylcholine; type: functional, cell-based

Kd [4] [nM] | Activity [7] | Compound | EC50 [3] [nM] | Activity [12] | Activity [13] | also measured
166 | – | CC[C@@H]1SC2(CCNCC2)N(CCCCCCCCOc2ccc3cc(Cn4cc(C(=O)O)c(=O)c5cccc(F)c54)ccc3c2)C1=O | 60.3 | – | – | Emax [1]: 61%; Activity [2]: Active
490 | inactive | C[N+](C)(CC#CCOC1=NOCC1)CCCCCCNC(=O)c1cn(Cc2ccccc2)c2c(F)cccc2c1=O | 178 | – | – | pEC0.5 [5]: 6.1; inhibition [6]: 15%; inhibition [8]: inactive; inhibition [9]: Active; pKA [10]: 6.98; pKb [11]: 6.3
74.1 | inactive | C[N+](C)(CC#CCOC1=NOCC1)CCCCCCNC(=O)c1cn(Cc2ccccc2)c2cc(Br)ccc2c1=O | 15.5 | – | – | –
– | – | O=C(NCCCCCCBr)c1cn(Cc2ccccc2)c2c(F)cccc2c1=O | – | inactive | inactive | pEC0.5 [5]: 6.15; inhibition [6]: 47%; inhibition [8]: inactive; inhibition [9]: Active; Imax [14]: 10 µM
– | – | CC[C@@H]1SC2(CCNCC2)N(CCCOc2ccc3cc(Cn4cc(C(=O)O)c(=O)c5cccc(F)c54)ccc3c2)C1=O | – | – | – | Emax [1]: 55%; Activity [15]: inactive; Activity [2]: Active
– | – | CC[C@@H]1SC2(CCNCC2)NC1=O | – | – | – | Emax [1]: 12%
– | – | COc1ccc2cc(Cn3cc(C(=O)O)c(=O)c4cccc(F)c43)ccc2c1 | – | – | – | Emax [16]: 1%; Activity [2]: Active
– | – | COc1ccc(Cn2cc(C(=O)O)c(=O)c3ccccc32)cc1 | – | inactive | Active | –
– | – | O=C(NCCCCBr)c1cn(Cc2ccccc2)c2cc(Br)ccc2c1=O | – | inactive | inactive | –
851 | inactive | C[N+](C)(CC#CCOC1=NOCC1)CCCCCCNC(=O)c1cn(Cc2ccccc2)c2cc(Cl)c(F)cc2c1=O | 302 | – | – | –
– | – | O=C(NCCCCBr)c1cn(Cc2ccccc2)c2cc(Cl)c(F)cc2c1=O | – | inactive | inactive | –
– | – | CCCCCCCCN1CCC(n2c(=O)[nH]c3ccccc32)CC1 | 537 | – | – | pEC0.5 [5]: 5.94; inhibition [6]: 36%; T1/2 [17]: 8.9 min; fold change (FC) [18]: 3; Activity [2]: Active
– | – | O=C(NCCCCCCBr)c1cn(Cc2ccccc2)c2cc(Cl)c(F)cc2c1=O | – | inactive | inactive | inhibition [19]: Active
151 | inactive | C[N+](C)(CC#CCOC1=NOCC1)CCCCCCNC(=O)c1cn(Cc2ccccc2)c2ccc(F)cc2c1=O | 58.9 | – | – | –
– | – | O=C(NCCCCCCBr)c1cn(Cc2ccccc2)c2cc(Br)ccc2c1=O | – | inactive | inactive | inhibition [19]: Active
– | – | O=C(NCCCCBr)c1cn(Cc2ccccc2)c2c(F)cccc2c1=O | – | inactive | inactive | pEC0.5 [5]: 5.9; inhibition [6]: 35%; inhibition [8]: inactive; inhibition [9]: Active; Imax [14]: 3 µM
– | – | CCCCCCCCOc1ccc2cc(Cn3cc(C(=O)O)c(=O)c4cccc(F)c43)ccc2c1 | – | – | – | Emax [20]: 1%; Activity [2]: Active

Compound | Kd [4] [nM] | Activity [7] | EC50 [3] [nM] | Activity [12] | Activity [13] | also measured
C[N+](C)(CC#CCOC1=NOCC1)CCCCNC(=O)c1cn(Cc2ccccc2)c2cc(Cl)c(F)cc2c1=O | 72.4 | inactive | 32.4 | – | – | –
C[N+](C)(CC#CCOC1=NOCC1)CCCCNC(=O)c1cn(Cc2ccccc2)c2c(F)cccc2c1=O | 151 | inactive | 57.5 | – | – | pEC0.5 [5]: 6.04; inhibition [6]: 18%; inhibition [8]: inactive; inhibition [9]: Active; pKA [10]: 6.64; pKb [11]: 6.92
C[N+](C)(C)CC#CCOC1=NOCC1 | 2140 | – | 2.04 | – | – | –
C[N+](C)(CC#CCOC1=NOCC1)CCCCNC(=O)c1cn(Cc2ccccc2)c2cc(Br)ccc2c1=O | 141 | inactive | 63.1 | – | – | –
